Measurements reported in patent US9556159B2, “Renin inhibitor” (MITSUBISHI TANABE PHARMA CORPORATION, priority 2012, dated 2017).

Biological target: T1, Recombinant human renin (Homo sapiens, UniProt P00797)
T1 sequence (P00797 67-406): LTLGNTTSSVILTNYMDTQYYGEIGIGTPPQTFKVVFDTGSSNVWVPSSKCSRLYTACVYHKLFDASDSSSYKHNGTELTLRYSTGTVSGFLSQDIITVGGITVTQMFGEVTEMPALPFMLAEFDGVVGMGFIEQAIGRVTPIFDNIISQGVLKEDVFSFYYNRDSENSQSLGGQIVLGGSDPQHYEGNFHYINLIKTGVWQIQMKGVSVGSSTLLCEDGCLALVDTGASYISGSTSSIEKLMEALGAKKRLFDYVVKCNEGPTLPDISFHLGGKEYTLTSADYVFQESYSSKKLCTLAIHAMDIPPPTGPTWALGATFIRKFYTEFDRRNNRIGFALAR
Assay: Inhibitory activity against human renin (fluorogenic peptide substrate)
Type: biochemical
Settings: 37° C. for 1 hour, read-out: IC50
Protocol: Inhibitory Activity Against Human Renin
A substrate of synthetic peptide (Nma-KHPFH LVIHK(Dnp)-NH2) and test compound were mixed, and fluorescence intensity was assayed using a fluorophotometer before starting an enzymatic reaction (exciting wavelength: 340 nm, measuring wavelength: 460 nm). Recombinant human renin was added and the mixture was incubated at 37° C. for 1 hour, and the fluorescence intensity was measured after the reaction using a fluorophotometer (exciting wavelength: 340 nm, measuring wavelength: 460 nm).

Compound | IC50 [nM]
COC[C@@H]1CNC[C@H](C(=O)N(C2CC2)[C@H](C)c2nn(CCCNC(=O)OC)c3nc(C)ccc23)O1 [Example 1, methyl (3-{3-[(1R)-1-(cyclopropyl{[(2R,6S)-6-(methoxymethyl)morpholin-2-yl]carbonyl}amino)ethyl]-6-methyl-1H-pyrazolo[3,4-b]pyridin-1-yl}propyl)carbamate] | 0.3
COC[C@@H]1CNC[C@H](C(=O)N(C2CC2)[C@H](C)c2cc(CCCNC(=O)OC)nc(OC)c2)O1 [Example 2, methyl (3-{4-[(1R)-1-(cyclopropyl{[(2R,6S)-6-(methoxymethyl)morpholin-2-yl]carbonyl}amino)ethyl]-6-methoxypyridin-2-yl}propyl)carbamate] | 0.3
COC(=O)NCCCc1cc([C@@H](C)N(C(=O)[C@H]2CNC[C@@H](C(=O)OC)O2)C2CC2)sc1-c1ccccc1 [Example 3, methyl (2S,6R)-6-{cyclopropyl[(1R)-1-(4-{3-[(methoxycarbonyl)amino]propyl}-5-phenylthiophen-2-yl)ethyl]carbamoyl}morpholine-2-carboxylate] | 0.6
COC(=O)NCCCn1cc([C@@H](C)N(C(=O)[C@H]2CNCCO2)C2CC2)nc1OC(C)C [Example 5, methyl (3-{4-[(1R)-1-{cyclopropyl[(2R)-morpholin-2-ylcarbonyl]amino}ethyl]-2-(propan-2-yloxy)-1H-imidazol-1-yl}propyl)carbamate] | 0.7
COC(=O)NCCCn1cc([C@@H](C)N(C(=O)[C@H]2CNCCO2)C2CC2)nc1C1CCCCC1 [Example 6, methyl (3-{2-cyclohexyl-4-[(1R)-1-{cyclopropyl[(2R)-morpholin-2-ylcarbonyl]amino}ethyl]-1H-imidazol-1-yl}propyl)carbamate] | 0.3
CC(=O)NCCn1nc(C)c2ccc([C@@H](C)N(C(=O)[C@H]3CNCCO3)C3CC3)cc21 [Example 8] | 4.4
COC(=O)NCCn1nc(C)c2ccc([C@@H](C)N(C(=O)[C@H]3CNCCO3)C3CC3)cc21 [Example 9] | 7.3
COCCCc1nn(C)c2ccc([C@@H](C)N(C(=O)[C@H]3CNCCO3)C3CC3)cc12 [Example 15] | 2.6
COCCCOc1cc([C@@H](C)N(C(=O)[C@H]2CNCCO2)C2CC2)cc2c1OCCC2 [Example 19] | 2.4
COCCCCn1cc([C@@H](C)N(C(=O)[C@H]2CNCCO2)C2CC2)c2ncc(C)cc21 [Example 20] | 0.5
COCCCn1ncc2c(F)cc([C@@H](C)N(C(=O)[C@H]3CNCCO3)C3CC3)cc21 [Example 23] | 2.4
COCCCCc1cc(C(C)N(C(=O)[C@H]2CNCCO2)C2CC2)cnc1OC (some centres unmarked) [Example 25] | 6.3
COCCCc1nn(C)c2ccc([C@@H](C)N(C(=O)[C@H]3CNCCO3)C3CC3)cc12 [Example 26] | 3.4
COc1ccc([C@@H](C)N(C(=O)[C@H]2CNCCO2)C2CC2)cc1CCCNC(C)=O [Example 27] | 8.3
CNC(=O)NCCCn1nc([C@@H](C)N(C(=O)[C@H]2CNCCO2)C2CC2)c2ccc(C)cc21 [Example 28] | 7.1
COC(=O)NCCCn1nc([C@@H](C)N(C(=O)[C@H]2CNCCO2)C2CC2)c2ccc(C)cc21 [Example 29] | 0.6
COCCCOc1nc([C@@H](C)N(C(=O)[C@H]2CNCCO2)C2CC2)cc2ccccc12 [Example 32] | 3.3
COCCCc1cn(C)c2cnc([C@@H](C)N(C(=O)[C@H]3CNCCO3)C3CC3)cc12 [Example 33] | 5.3
CCc1cnc2c([C@@H](C)N(C(=O)[C@H]3CNCCO3)C3CC3)cn(CCCCOC)c2c1 [Example 35] | 0.4
COCCCCn1cc([C@@H](C)N(C(=O)[C@H]2CNCCO2)C2CC2)c2ncc(C3CC3)cc21 [Example 36] | 0.5
COCCCc1cn(C)c2ccc([C@@H](C)N(C(=O)[C@H]3CNCCO3)C3CC3)nc12 [Example 39] | 2

Compound | IC50 [nM]
COCCCCn1cc([C@@H](C)N(C(=O)[C@H]2CNCCO2)C2CC2)c2ncc(OC)cc21 [Example 40] | 0.7
COC(=O)NCCCn1nc([C@@H](C)N(C(=O)[C@H]2CNCCO2)C2CC2)c2ccc(OC)cc21 [Example 41] | 0.7
COC(=O)NCCCn1cc([C@@H](C)N(C(=O)[C@H]2CNCCO2)C2CC2)c2nccc(C)c21 [Example 42] | 0.5
COC(=O)NCCCn1cc([C@@H](C)N(C(=O)[C@H]2CNCCO2)C2CC2)c2ncccc21 [Example 43] | 0.6
COCCCn1nc(C)c2ccc([C@@H](C)N(C(=O)[C@H]3CNCCO3)C3CC3)nc21 [Example 44] | 3
COCCCN1C(=O)C(C)(C)c2ccc([C@@H](C)N(C(=O)[C@H]3CNCCO3)C3CC3)cc21 [Example 45] | 3.4
COCCCN1CC(C)(C)c2ccc([C@@H](C)N(C(=O)[C@H]3CNCCO3)C3CC3)cc21 [Example 46] | 1.5
COCCCc1cn(C)c2ncc([C@@H](C)N(C(=O)[C@H]3CNCCO3)C3CC3)cc12 [Example 47] | 4.8
COCCCc1cn(C)c2ccc([C@@H](C)N(C(=O)[C@H]3CNCCO3)C3CC3)cc12 [Example 48] | 1.5
COC(=O)NCCCn1cc([C@H](C)N(C(=O)[C@H]2CNCCO2)C2CC2)c2ccc(C)nc21 [Example 50] | 1
COCCCCn1cc([C@H](C)N(C(=O)[C@H]2CNCCO2)C2CC2)c2nccc(OC)c21 [Example 51] | 8.8
COCCCCn1cc([C@@H](C)N(C(=O)[C@H]2CNCCO2)C2CC2)c2nccc(OC)c21 [Example 52] | 1.8
COCCCCn1cc([C@@H](C)N(C(=O)[C@H]2CNCCO2)C2CC2)c2nc(C)ccc21 [Example 56] | 4.2
CCOC(=O)NCCCn1nc([C@@H](C)N(C(=O)[C@H]2CNCCO2)C2CC2)c2ccc(C)nc21 [Example 58] | 1.6
COC(=O)NCCCn1nc([C@@H](C)N(C(=O)[C@H]2CNCCO2)C2CC2)c2ccc(C3CC3)cc21 [Example 59] | 0.9
COC(=O)NCCCc1cccc([C@@H](C)N(C(=O)[C@H]2CNCCO2)C2CC2)c1 [Example 61] | 4
COC(=O)NCCCn1nc([C@@H](C)N(C(=O)[C@H]2CNCCO2)C2CC2)c2cccc(C)c21 [Example 62] | 0.6
COC(=O)NCCCn1nc([C@@H](C)N(C(=O)[C@H]2CNCCO2)C2CC2)c2ccc(CO)cc21 [Example 63] | 1.3
COc1ccc([C@@H](C)N(C(=O)[C@H]2CNCCO2)C2CC2)cc1CCCNC(=O)C(F)(F)F [Example 67] | 8.9
CCC(=O)NCCCc1cc([C@@H](C)N(C(=O)[C@H]2CNCCO2)C2CC2)ccc1OC [Example 68] | 4.5
COC(=O)NCCCn1nc([C@@H](C)N(C(=O)[C@H]2CNCCO2)C2CC2)c2ncc(C)cc21 [Example 70] | 1

Compound | IC50 [nM]
COC(=O)NCCCn1nc([C@@H](C)N(C(=O)[C@H]2CNCCO2)C2CC2)c2ccc(C(F)(F)F)nc21 [Example 72] | 0.7
COCCCn1cc(C(C)C)c2cnc([C@@H](C)N(C(=O)[C@H]3CNCCO3)C3CC3)nc21 [Example 73] | 1.4
COC(=O)NCCCc1nc([C@@H](C)N(C(=O)[C@H]2CNCCO2)C2CC2)ccc1OC [Example 74] | 4.6
COC(=O)NCCCn1cc([C@@H](C)N(C(=O)[C@H]2CNCCO2)C2CC2)c2cc(F)cnc21 [Example 75] | 0.3
COC(=O)NCCCn1nc([C@@H](C)N(C(=O)[C@H]2CNCCO2)C2CC2)c2cccc(F)c21 [Example 76] | 0.6
COCCCCc1cc([C@@H](C)N(C(=O)[C@H]2CNCCO2)C2CC2)cc(OC)n1 [Example 78] | 0.9
CCc1ccnc2c([C@@H](C)N(C(=O)[C@H]3CNCCO3)C3CC3)cn(CCCCOC)c12 [Example 79] | 0.9
COCCCCn1cc([C@@H](C)N(C(=O)[C@H]2CNCCO2)C2CC2)c2nccnc21 [Example 80] | 5.7
COCc1cccc2c([C@@H](C)N(C(=O)[C@H]3CNCCO3)C3CC3)nn(CCCNC(=O)OC)c12 [Example 81] | 0.4
COC(=O)NCCCn1nc([C@@H](C)N(C(=O)[C@H]2CNCCO2)C2CC2)c2ccc(C3CC3)nc21 [Example 82] | 0.5
COCCCn1cc(CCCNC(=O)OC)c2cnc([C@@H](C)N(C(=O)[C@H]3CNCCO3)C3CC3)cc21 [Example 83] | 2.1
COC(=O)NCCCn1cc([C@@H](C)N(C(=O)[C@H]2CNCCO2)C2CC2)c2nccnc21 [Example 84] | 1.7
COC(=O)NCCCc1cc(OC)cc([C@@H](C)N(C(=O)[C@H]2CNCCO2)C2CC2)c1 [Example 85] | 1
COCCCCn1cc([C@@H](C)N(C(=O)[C@H]2CNCCO2)C2CC2)c2nccc(CCOC)c21 [Example 86] | 1.1
COC(=O)NCCCc1cc(OC)cc([C@@H](C)N(C(=O)[C@H]2CNCCO2)C2CC2)n1 [Example 87] | 4.8
CCc1ccc2c([C@@H](C)N(C(=O)[C@H]3CNCCO3)C3CC3)nn(CCCNC(=O)OC)c2n1 [Example 89] | 1
COC(=O)NCCCn1nc([C@@H](C)N(C(=O)[C@H]2CNCCO2)C2CC2)c2ccc(C(C)C)nc21 [Example 90] | 0.8
COC(=O)NCCCc1cc(F)cc([C@@H](C)N(C(=O)[C@H]2CNCCO2)C2CC2)c1 [Example 92] | 1.9
COCCCCn1cc([C@@H](C)N(C(=O)[C@H]2CNCCO2)C2CC2)c2ncc(C)nc21 [Example 93] | 1.6
COCc1ccc([C@@H](C)N(C(=O)[C@H]2CNCCO2)C2CC2)cc1OCCNC(=O)OC [Example 95] | 7.2
